Results published in patent publication US20240293365A1, “METHODS FOR TREATING AND AMELIORATING T CELL RELATED DISEASES” (The Regents of the University of California, priority 2021, published 2024).

Target: T1, ZAP70 kinase (Homo sapiens, UniProt P43403)
T1 construct: The FRET change is mediated by the kinase domain; saFRET biosensor module (FRET pair and sensing unit); expressed in transfected cells; host or cells: HEK293
T1 sequence (P43403 338-600 limits assumed): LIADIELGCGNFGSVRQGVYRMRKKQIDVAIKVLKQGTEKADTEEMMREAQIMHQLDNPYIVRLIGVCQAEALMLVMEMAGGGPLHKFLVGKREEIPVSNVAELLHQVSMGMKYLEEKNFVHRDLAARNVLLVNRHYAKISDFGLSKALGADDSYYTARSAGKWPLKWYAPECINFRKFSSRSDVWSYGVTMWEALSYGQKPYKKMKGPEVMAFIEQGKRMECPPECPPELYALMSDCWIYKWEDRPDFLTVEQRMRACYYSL
Assay: saFRET-HTDS: ZAP70 saFRET biosensor screening of a 96-member kinase inhibitor library in HEK293 cells
Format: cell-based
Details: for top 10 selected inhibitors of the saFRET screening: 96-member kinase inhibitor library, 10 μM, FIG. 2D
Method: We first screened a 96-member kinase inhibitor library to identify efficient inhibitors of ZAP70 kinase. […] After 40 minutes of incubation with inhibitors, the cells were imaged, and the FRET ratio changes of individual inhibitors compared to the solvent control were calculated to identify promising candidates after this primary endpoint screening (FIG. 2). We further exploited a control biosensor with a kinase-dead domain (saFRETkd) for counter screening to eliminate false-positive hits due to auto-fluorescence or other non-specific effects (1).
C, Schematics of saFRET assay in HEK293 cells.
A, Schematics of the high throughput drug screening platform. First, the cells cultured in 96-well glass-bottom plate were treated either with DMSO or inhibitors from the kinase inhibitor library. After 40 minutes of incubation, the cells were imaged, and the FRET ratio change compared to the control cell was calculated.

| SMILES | top 10 selected inhibitors of the saFRET screening | inhibition of ZAP70 kinase domain-mediated activation of saFRET biosensor (FRET ratio change vs solvent control) (inhibitor 10 μM, 40 minutes incubation) |
| --- | --- | --- |
| COc1cc2c(Nc3ccc(NC(=O)c4ccccc4)cc3)ncnc2cc1OCCCN1CCOCC1 [ZM 447439] | top 10 |  |
| Cn1cc(-c2nc(N[C@@H]3CCCC[C@@H]3N)c(F)c3c2C(=O)NC3)cn1 [TAK-659] |  | relatively ineffective |
| CN[C@@H]1C[C@H]2O[C@@](C)([C@@H]1OC)n1c3ccccc3c3c4c(c5c6ccccc6n2c5c31)C(=O)NC4 [staurosporine] | top 10 |  |
| COc1ccc2cc(-c3nc(-c4ccc([S+](C)[O-])cc4)[nH]c3-c3ccncc3)ccc2c1 (stereo not drawn) [Tie2 kinase inhibitor] | top 10 |  |
| CCn1c(=O)c(-c2ccc(-c3cncs3)cc2Cl)cc2cnc(Nc3ccc(N4CCN(C)CC4)cc3)nc21 [FRAX 597] | top 10 |  |
| Cc1[nH]c(/C=C2\C(=O)Nc3ccc(S(=O)(=O)Cc4c(Cl)cccc4Cl)cc32)c(C)c1C(=O)N1CCC[C@@H]1CN1CCCC1 [PHA-665752] | top 10 |  |
| CNC(=O)c1ccccc1Nc1nc(Nc2ccc(N3CCOCC3)cc2OC)ncc1Cl [NVP-TAE226] | top 10 |  |
| NC1CCCN(c2c(/C=C3/SC(=O)NC3=O)cccc2-c2ccccc2)C1 (stereo not drawn) [AZD 1208] | top 10 |  |
| NC(=O)Nc1cc(-c2cccc(F)c2)sc1C(=O)N[C@H]1CCCNC1 [AZD 7762] | top 10 |  |
